These results are taken from article PMC8286840, “Identifying SARS-CoV-2 antiviral compounds by screening for small molecule inhibitors of Nsp3 papain-like protease” (Biochemical Journal, 2021).

For test [1], the target named is T1, SARS-CoV-2 PLpro (nsp3 1564–1878) (Severe acute respiratory syndrome coronavirus 2, UniProt P0DTD1). In words: biochemical. More on the design: FRET-quenched peptide (Pro3) cleavage by PLpro, 10 min pre-incubation, slope over 20 min, normalised to no-compound control. The conditions noted are these: read-out: % of control remaining.
Test [2] addresses T1, SARS-CoV-2 PLpro (nsp3 1564–1878). Nature of the test: biochemical. As to conditions: read-out: % of control remaining. Details: FRET-quenched peptide (Pro3) cleavage by PLpro, 10 min pre-incubation, slope over 20 min, normalised to no-compound control. This is another data set of the same source.

Structures are written as SMILES. Counter-ions that a name gives are not always drawn. Like-named read-outs stand apart in the source and are kept apart here.

For `CC(C)N(CCC(C(N)=O)(c1ccccc1)c1ccccn1)C(C)C` (stereo not drawn) [Disopyramide phosphate], the remaining activity at 3.75 µM in test [1] (Well no.=436, high concentration screen) came to 98.8%. Also, the remaining activity at 1.25 µM in test [2] (Well no.=436, low concentration screen) was 97.6%.
Regarding `CC(C)N(CCC(C(N)=O)(c1ccccc1)c1ccccn1)C(C)C` (stereo not drawn) [Disopyramide], the remaining activity at 3.75 µM in test [1] (Well no.=390, high concentration screen) stood at 101%. Also, the remaining activity at 1.25 µM in test [2] (Well no.=390, low concentration screen) was determined as 101%.
As to `CCCC(CCC)C(=O)O` [Divalproex sodium], the remaining activity at 3.75 µM in test [1] (Well no.=5341, high concentration screen) is 95.4%. The remaining activity at 1.25 µM in test [2] (Well no.=5341, low concentration screen) was found to be 97.2%.
As to `CC(CCc1ccc(O)cc1)NCCc1ccc(O)c(O)c1` (stereo not drawn) [Dobutamine hydrochloride], the remaining activity at 3.75 µM in test [1] (Well no.=587, high concentration screen) came out at 99.5%. Also, the remaining activity at 1.25 µM in test [2] (Well no.=587, low concentration screen) was found to be 97.5%.
In the case of `CC(CCc1ccc(O)cc1)NCCc1ccc(O)c(O)c1` (stereo not drawn) [Dobutamine.HCl], the remaining activity at 3.75 µM in test [1] (Well no.=1781, high concentration screen) is 103%. The remaining activity at 1.25 µM in test [2] (Well no.=1781, low concentration screen) was found to be 101%.
With `CC1=C(C)C(=O)C(CCCCC#CCCCC#CCO)=C(C)C1=O` [Docebenone], in test [1] (Well no.=1917, high concentration screen), the remaining activity at 3.75 µM came to 90.2%. Moreover, in test [2] (Well no.=1917, low concentration screen), the remaining activity at 1.25 µM was found to be 90.8%.
With `CCCCCCCCCCCCCCCCCCCCCC(=O)O` [Docosanoic acid], the remaining activity at 3.75 µM in test [1] (Well no.=4456, high concentration screen) was 99.7%. Also, the remaining activity at 1.25 µM in test [2] (Well no.=4456, low concentration screen) is 100%.
As to `CC/C=C\C/C=C\C/C=C\C/C=C\C/C=C\CCCCCC(=O)O` [Docosapentaenoic acid], the remaining activity at 3.75 µM in test [1] (Well no.=4347, high concentration screen) was found to be 105%; in test [1] (Well no.=4492, high concentration screen) it was 91.7%. For the same compound, the remaining activity at 1.25 µM in test [2] (Well no.=4347, low concentration screen) stood at 105%; in test [2] (Well no.=4492, low concentration screen), 93.7%.
In the case of `CCCCC(CC)COC(=O)CC(C(=O)OCC(CC)CCCC)S(=O)(=O)O` (stereo not drawn) [Docusate Sodium], the remaining activity at 3.75 µM in test [1] (Well no.=8348, high concentration screen) worked out at 92.6%. Also, in test [2] (Well no.=8348, low concentration screen), the remaining activity at 1.25 µM worked out at 94.3%.
`CCCCCCCCCCCC(=O)O` [Dodecanoic acid]: in test [1] (Well no.=4256, high concentration screen), the remaining activity at 3.75 µM amounted to 94.8%. Besides, the remaining activity at 1.25 µM in test [2] (Well no.=4256, low concentration screen) came out at 101%.
For the compound `CN(CCOc1ccc(NS(C)(=O)=O)cc1)CCc1ccc(NS(C)(=O)=O)cc1` [Dofetilide], in test [1] (Well no.=1659, high concentration screen), the remaining activity at 3.75 µM is 106%. For the same compound, the remaining activity at 1.25 µM in test [2] (Well no.=1659, low concentration screen) came to 108%.
`O=C(O[C@@H]1C[C@@H]2C[C@H]3C[C@H](C1)N2CC3=O)c1c[nH]c2ccccc12` [Dolasetron (Mesylate hydrate)]: the remaining activity at 3.75 µM in test [1] (Well no.=7381, high concentration screen) was found to be 98%. The remaining activity at 1.25 µM in test [2] (Well no.=7381, low concentration screen) was 108%.
Regarding `O=C(O[C@@H]1C[C@@H]2C[C@H]3C[C@H](C1)N2CC3=O)c1c[nH]c2ccccc12` [Dolasetron], the remaining activity at 3.75 µM in test [1] (Well no.=1870, high concentration screen) turned out to be 96.3%; in test [1] (Well no.=6235, high concentration screen), 105%. The remaining activity at 1.25 µM in test [2] (Well no.=1870, low concentration screen) was 96.1%; in test [2] (Well no.=6235, low concentration screen) it was 106%.
Regarding `C/C(=C/C=C/[C@@H](C)C(=O)O)[C@H]1CN[C@H](C(=O)O)[C@H]1CC(=O)O` [Domoic acid], the remaining activity at 3.75 µM in test [1] worked out at 102%. In addition, in test [2], the remaining activity at 1.25 µM was determined as 99.4%.
For `O=c1[nH]c2ccccc2n1CCCN1CCC(n2c(=O)[nH]c3cc(Cl)ccc32)CC1` [Domperidone], the remaining activity at 3.75 µM in test [1] (Well no.=496, high concentration screen) was 104%; in test [1] (Well no.=1598, high concentration screen), 99.4%; in test [1] (Well no.=7485, high concentration screen), 89.8%. In addition, the remaining activity at 1.25 µM in test [2] (Well no.=496, low concentration screen) was 107%; in test [2] (Well no.=1598, low concentration screen) it was 96.5%; in test [2] (Well no.=7485, low concentration screen), 94%.
With `NCCc1ccc(O)c(O)c1` [Dopamine (hydrochloride)], in test [1] (Well no.=6268, high concentration screen), the remaining activity at 3.75 µM was found to be 96.3%. Moreover, in test [2] (Well no.=6268, low concentration screen), the remaining activity at 1.25 µM came out at 96.9%.
On to `NCCc1ccc(O)c(O)c1` [Dopamine hydrochloride], for which the remaining activity at 3.75 µM in test [1] (Well no.=518, high concentration screen) amounted to 99.9%. Moreover, the remaining activity at 1.25 µM in test [2] (Well no.=518, low concentration screen) was found to be 102%.
Regarding `C[C@@H](O)[C@H]1C(=O)N2C(C(=O)O)=C(S[C@@H]3CN[C@H](CNS(N)(=O)=O)C3)[C@H](C)[C@H]12` [Doripenem Hydrate], in test [1] (Well no.=5203, high concentration screen), the remaining activity at 3.75 µM amounted to 104%. In addition, in test [2] (Well no.=5203, low concentration screen), the remaining activity at 1.25 µM turned out to be 103%.
Consider `CCN[C@H]1C[C@H](C)S(=O)(=O)c2sc(S(N)(=O)=O)cc21` [Dorzolamide HCl], for which the remaining activity at 3.75 µM in test [1] (Well no.=5205, high concentration screen) was determined as 95%. The remaining activity at 1.25 µM in test [2] (Well no.=5205, low concentration screen) was 92.8%.
Take `CCN[C@H]1C[C@H](C)S(=O)(=O)c2sc(S(N)(=O)=O)cc21` [Dorzolamide.HCl]: the remaining activity at 3.75 µM in test [1] (Well no.=1878, high concentration screen) was determined as 96.1%. Also, the remaining activity at 1.25 µM in test [2] (Well no.=1878, low concentration screen) came to 96.7%.
On to `CCN1CC(CCN2CCOCC2)C(c2ccccc2)(c2ccccc2)C1=O` (stereo not drawn) [Doxapram HCl], for which the remaining activity at 3.75 µM in test [1] (Well no.=5120, high concentration screen) was 96.1%. Besides, the remaining activity at 1.25 µM in test [2] (Well no.=5120, low concentration screen) came out at 98.8%.
`COc1cc2nc(N3CCN(C(=O)C4COc5ccccc5O4)CC3)nc(N)c2cc1OC` (stereo not drawn) [Doxazosin (mesylate)]: the remaining activity at 3.75 µM in test [1] (Well no.=8187, high concentration screen) turned out to be 102%. Also, the remaining activity at 1.25 µM in test [2] (Well no.=8187, low concentration screen) was 105%.
`COc1cc2nc(N3CCN(C(=O)C4COc5ccccc5O4)CC3)nc(N)c2cc1OC` (stereo not drawn) [Doxazosin mesylate]: in test [1] (Well no.=730, high concentration screen), the remaining activity at 3.75 µM stood at 93.7%. For the same compound, the remaining activity at 1.25 µM in test [2] (Well no.=730, low concentration screen) was determined as 98.2%.
`COc1cc2nc(N3CCN(C(=O)C4COc5ccccc5O4)CC3)nc(N)c2cc1OC` (stereo not drawn) [Doxazosin]: the remaining activity at 3.75 µM in test [1] (Well no.=1988, high concentration screen) is 104%. For the same compound, in test [2] (Well no.=1988, low concentration screen), the remaining activity at 1.25 µM stood at 103%.
With `CN(C)CCC=C1c2ccccc2COc2ccccc21` [Doxepin hydrochloride], the remaining activity at 3.75 µM in test [1] (Well no.=451, high concentration screen) came out at 102%. In addition, the remaining activity at 1.25 µM in test [2] (Well no.=451, low concentration screen) came out at 105%.
`C[C@H]1O[C@@H](n2cc(F)c(=O)[nH]c2=O)[C@H](O)[C@@H]1O` [Doxifluridine]: the remaining activity at 3.75 µM in test [1] (Well no.=1990, high concentration screen) came out at 103%; in test [1] (Well no.=8843, high concentration screen), 89.3%. The remaining activity at 1.25 µM in test [2] (Well no.=1990, low concentration screen) turned out to be 101%; in test [2] (Well no.=8843, low concentration screen), 96.7%.
For the compound `Cn1c(=O)c2c(ncn2CC2OCCO2)n(C)c1=O` [Doxofylline], the remaining activity at 3.75 µM in test [1] (Well no.=2020, high concentration screen) was 99.1%; in test [1] (Well no.=8323, high concentration screen), 94.2%. Further, the remaining activity at 1.25 µM came out at 100% in test [2] (Well no.=2020, low concentration screen) and 99.7% in test [2] (Well no.=8323, low concentration screen).
Turning to `COc1cccc2c1C(=O)c1c(O)c3c(c(O)c1C2=O)C[C@@](O)(C(=O)CO)C[C@@H]3O[C@H]1C[C@H](N)[C@H](O)[C@H](C)O1` [Doxorubicin.HCl], the remaining activity at 3.75 µM came to 100% in test [1] (Well no.=1710, high concentration screen) and 105% in test [1] (Well no.=3235, high concentration screen). Further, the remaining activity at 1.25 µM in test [2] (Well no.=1710, low concentration screen) was determined as 98.5%; in test [2] (Well no.=3235, low concentration screen), 105%.
Consider `C[C@H]1c2cccc(O)c2C(=O)C2=C(O)[C@]3(O)C(=O)C(C(N)=O)=C(O)[C@@H](N(C)C)[C@@H]3[C@@H](O)[C@@H]21` [Doxycycline hydrochloride], for which the remaining activity at 3.75 µM in test [1] (Well no.=396, high concentration screen) came out at 108%. For the same compound, the remaining activity at 1.25 µM in test [2] (Well no.=396, low concentration screen) was 105%.
